Data: the supplement of paper PMC10307832

Experiments:
Experiment in all cases: relative viability (nuclei count vs DMSO), 5 days (fraction); higher = more cells survive
NCI-H1395 = system: NCI-H1395
Method in brief: (§1)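 Lung cancer cell lines, seeded in 1536-well plates, were treated the following day by pin tool with a single drug or with five library-drug doses (not always all listed) in √10 steps on top of a fixed anchor-drug dose. Cells were fixed and nuclei stained in one step after 5 days, and nuclei were counted. Relative viability is the nuclei count for treated wells divided by that for vehicle wells, reported as medians of duplicate plates.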

UMC-11 = system: UMC-11
Method in brief: as §1

ABC-1 = system: ABC-1
Method in brief: as §1

201T = system: 201T
Method in brief: as §1

NCI-H1915 = system: NCI-H1915
Method in brief: as §1

NCI-H661 = system: NCI-H661
Method in brief: as §1

NCI-H2405 = system: NCI-H2405
Method in brief: as §1

EMC-BAC-2 = system: EMC-BAC-2
Method in brief: as §1

HCC-78 = system: HCC-78
Method in brief: as §1

NCI-H1437 = system: NCI-H1437
Method in brief: as §1

NCI-H1793 = system: NCI-H1793
Method in brief: as §1

NCI-H23 = system: NCI-H23
Method in brief: as §1

SK-LU-1 = system: SK-LU-1
Method in brief: as §1

NCI-H1651 = system: NCI-H1651
Method in brief: as §1

NCI-H1792 = system: NCI-H1792
Method in brief: as §1

NCI-H2023 = system: NCI-H2023
Method in brief: as §1

NCI-H647 = system: NCI-H647
Method in brief: as §1

NCI-H1975 = system: NCI-H1975
Method in brief: as §1

RERF-LC-KJ = system: RERF-LC-KJ
Method in brief: as §1

LOU-NH91 = system: LOU-NH91
Method in brief: as §1

EPLC-272H = system: EPLC-272H
Method in brief: as §1

LCLC-103H = system: LCLC-103H
Method in brief: as §1

NCI-H1734 = system: NCI-H1734
Method in brief: as §1

Compound: O=c1[nH]c2ccccc2n1C1CCN(CCCC(c2ccc(F)cc2)c2ccc(F)cc2)CC1 [Pimozide] + CS(=O)(=O)N1CCN(Cc2cc3nc(-c4cccc5[nH]ncc45)nc(N4CCOCC4)c3s2)CC1 [Pictilisib] (partner 1 µM)
- relative viability (NCI-H1395; first compound 0.08 µM): 0.647
- relative viability (NCI-H1395; first compound 0.253 µM): 0.598
- relative viability (NCI-H1395; first compound 0.8 µM): 0.634
- relative viability (NCI-H1395; first compound 2.53 µM): 0.679
- relative viability (NCI-H1395; first compound 8 µM): 0.681
- relative viability (UMC-11; first compound 0.08 µM): 0.79
- relative viability (UMC-11; first compound 0.253 µM): 0.804
- relative viability (UMC-11; first compound 0.8 µM): 0.746
- relative viability (UMC-11; first compound 2.53 µM): 0.699
- relative viability (UMC-11; first compound 8 µM): 0.906
- relative viability (ABC-1; first compound 0.08 µM): 0.596
- relative viability (ABC-1; first compound 0.253 µM): 0.84
- relative viability (ABC-1; first compound 0.8 µM): 0.743
- relative viability (ABC-1; first compound 2.53 µM): 0.589
- relative viability (ABC-1; first compound 8 µM): 0.474
- relative viability (201T; first compound 0.08 µM): 0.69
- relative viability (201T; first compound 0.253 µM): 0.613
- relative viability (201T; first compound 0.8 µM): 0.6
- relative viability (201T; first compound 2.53 µM): 0.669
- relative viability (201T; first compound 8 µM): 0.599
- relative viability (NCI-H1915; first compound 0.08 µM): 0.972
- relative viability (NCI-H1915; first compound 0.253 µM): 0.892
- relative viability (NCI-H1915; first compound 0.8 µM): 0.524
- relative viability (NCI-H1915; first compound 2.53 µM): 0.889
- relative viability (NCI-H1915; first compound 8 µM): 0.796
- relative viability (NCI-H661; first compound 0.08 µM): 0.447
- relative viability (NCI-H661; first compound 0.253 µM): 0.337
- relative viability (NCI-H661; first compound 0.8 µM): 0.454
- relative viability (NCI-H661; first compound 2.53 µM): 0.381
- relative viability (NCI-H661; first compound 8 µM): 0.408
- relative viability (NCI-H2405; first compound 0.08 µM): 0.482
- relative viability (NCI-H2405; first compound 0.253 µM): 0.371
- relative viability (NCI-H2405; first compound 0.8 µM): 0.422
- relative viability (NCI-H2405; first compound 2.53 µM): 0.42
- relative viability (NCI-H2405; first compound 8 µM): 0.349
- relative viability (EMC-BAC-2; first compound 0.08 µM): 0.486
- relative viability (EMC-BAC-2; first compound 0.253 µM): 0.51
- relative viability (EMC-BAC-2; first compound 0.8 µM): 0.549
- relative viability (EMC-BAC-2; first compound 2.53 µM): 0.532
- relative viability (EMC-BAC-2; first compound 8 µM): 0.54
- relative viability (HCC-78; first compound 0.08 µM): 0.214
- relative viability (HCC-78; first compound 0.253 µM): 0.244
- relative viability (HCC-78; first compound 0.8 µM): 0.187
- relative viability (HCC-78; first compound 2.53 µM): 0.19
- relative viability (HCC-78; first compound 8 µM): 0.202
- relative viability (NCI-H1437; first compound 0.08 µM): 0.543
- relative viability (NCI-H1437; first compound 0.253 µM): 0.464
- relative viability (NCI-H1437; first compound 0.8 µM): 0.499
- relative viability (NCI-H1437; first compound 2.53 µM): 0.421
- relative viability (NCI-H1437; first compound 8 µM): 0.406
- relative viability (NCI-H1793; first compound 0.08 µM): 0.296
- relative viability (NCI-H1793; first compound 0.253 µM): 0.302
- relative viability (NCI-H1793; first compound 0.8 µM): 0.311
- relative viability (NCI-H1793; first compound 2.53 µM): 0.357
- relative viability (NCI-H1793; first compound 8 µM): 0.275
- relative viability (NCI-H23; first compound 0.08 µM): 0.589
- relative viability (NCI-H23; first compound 0.253 µM): 0.431
- relative viability (NCI-H23; first compound 0.8 µM): 0.448
- relative viability (NCI-H23; first compound 2.53 µM): 0.429
- relative viability (NCI-H23; first compound 8 µM): 0.468
- relative viability (SK-LU-1; first compound 0.08 µM): 0.643
- relative viability (SK-LU-1; first compound 0.253 µM): 0.566
- relative viability (SK-LU-1; first compound 0.8 µM): 0.551
- relative viability (SK-LU-1; first compound 2.53 µM): 0.436
- relative viability (SK-LU-1; first compound 8 µM): 0.469
- relative viability (NCI-H1651; first compound 0.08 µM): 0.62
- relative viability (NCI-H1651; first compound 0.253 µM): 0.506
- relative viability (NCI-H1651; first compound 0.8 µM): 0.685
- relative viability (NCI-H1651; first compound 2.53 µM): 0.543
- relative viability (NCI-H1651; first compound 8 µM): 0.465
- relative viability (NCI-H1792; first compound 0.08 µM): 0.274
- relative viability (NCI-H1792; first compound 0.253 µM): 0.292
- relative viability (NCI-H1792; first compound 0.8 µM): 0.25
- relative viability (NCI-H1792; first compound 2.53 µM): 0.26
- relative viability (NCI-H1792; first compound 8 µM): 0.314
- relative viability (NCI-H2023; first compound 0.08 µM): 0.214
- relative viability (NCI-H2023; first compound 0.253 µM): 0.24
- relative viability (NCI-H2023; first compound 0.8 µM): 0.212
- relative viability (NCI-H2023; first compound 2.53 µM): 0.223
- relative viability (NCI-H2023; first compound 8 µM): 0.202
- relative viability (NCI-H647; first compound 0.08 µM): 0.389
- relative viability (NCI-H647; first compound 0.253 µM): 0.39
- relative viability (NCI-H647; first compound 0.8 µM): 0.448
- relative viability (NCI-H647; first compound 2.53 µM): 0.383
- relative viability (NCI-H647; first compound 8 µM): 0.334
- relative viability (NCI-H1975; first compound 0.08 µM): 0.282
- relative viability (NCI-H1975; first compound 0.253 µM): 0.262
- relative viability (NCI-H1975; first compound 0.8 µM): 0.297
- relative viability (NCI-H1975; first compound 2.53 µM): 0.28
- relative viability (NCI-H1975; first compound 8 µM): 0.202
- relative viability (RERF-LC-KJ; first compound 0.08 µM): 0.597
- relative viability (RERF-LC-KJ; first compound 0.253 µM): 0.524
- relative viability (RERF-LC-KJ; first compound 0.8 µM): 0.522
- relative viability (RERF-LC-KJ; first compound 2.53 µM): 0.505
- relative viability (RERF-LC-KJ; first compound 8 µM): 0.452
- relative viability (LOU-NH91; first compound 0.08 µM): 0.476
- relative viability (LOU-NH91; first compound 0.253 µM): 0.489
- relative viability (LOU-NH91; first compound 0.8 µM): 0.521
- relative viability (LOU-NH91; first compound 2.53 µM): 0.546
- relative viability (LOU-NH91; first compound 8 µM): 0.509
- relative viability (EPLC-272H; first compound 0.08 µM): 0.302
- relative viability (EPLC-272H; first compound 0.253 µM): 0.269
- relative viability (EPLC-272H; first compound 0.8 µM): 0.273
- relative viability (EPLC-272H; first compound 2.53 µM): 0.258
- relative viability (EPLC-272H; first compound 8 µM): 0.238
- relative viability (LCLC-103H; first compound 0.08 µM): 0.593
- relative viability (LCLC-103H; first compound 0.253 µM): 0.513
- relative viability (LCLC-103H; first compound 0.8 µM): 0.466
- relative viability (LCLC-103H; first compound 2.53 µM): 0.574
- relative viability (LCLC-103H; first compound 8 µM): 0.528
- relative viability (NCI-H1734; first compound 0.08 µM): 0.45
- relative viability (NCI-H1734; first compound 0.253 µM): 0.444
- relative viability (NCI-H1734; first compound 0.8 µM): 0.489
- relative viability (NCI-H1734; first compound 2.53 µM): 0.411
- relative viability (NCI-H1734; first compound 8 µM): 0.46
